Results: patent US20250280861A1, “SWEETENER COMPOSITIONS” (Firmenich Incorporated, priority 2022, published 2025)

Experiments:
panelists = assay: sweet enhancement taste tests (paired comparison, panelists choose the sweeter sample); type: in vivo, human; settings: for HFCS and sucrose sweet enhancement effect: taste tests, pH 2.8, concentration far below its sweetness threshold
Experimental: Test samples containing either a sweetener (sucrose or high-fructose corn syrup (HFCS)) alone or in combination with a test compound were presented in pairs to a group of panelists who were asked to determine which of the samples was sweeter. Subjects refrained from eating or drinking (except water) for at least 1 hour prior to the test. Subjects rinsed with water several times to clean the mouth. The samples within a paired comparison test were presented in a randomized, counterbalanced order. Panelists had up to a 1 minute delay between taste tests to clear the mouth of any tastes. Binomial probability tables were used to determine the probability of the correct number of responses occurring for each test at alpha-0.05.

[1] = biological target: T1, hT1R2/T1R3 taste receptor (Homo sapiens, UniProt Q7RTX0+Q8TE23); assay: agonist activity against the hT1R2/T1R3 taste receptor (sweet receptor based assay); type: cell-based; settings: agonist activity, hT1R2/T1R3; read-out: Sweet EC50
T1 sequence (Q8TE23 20-839): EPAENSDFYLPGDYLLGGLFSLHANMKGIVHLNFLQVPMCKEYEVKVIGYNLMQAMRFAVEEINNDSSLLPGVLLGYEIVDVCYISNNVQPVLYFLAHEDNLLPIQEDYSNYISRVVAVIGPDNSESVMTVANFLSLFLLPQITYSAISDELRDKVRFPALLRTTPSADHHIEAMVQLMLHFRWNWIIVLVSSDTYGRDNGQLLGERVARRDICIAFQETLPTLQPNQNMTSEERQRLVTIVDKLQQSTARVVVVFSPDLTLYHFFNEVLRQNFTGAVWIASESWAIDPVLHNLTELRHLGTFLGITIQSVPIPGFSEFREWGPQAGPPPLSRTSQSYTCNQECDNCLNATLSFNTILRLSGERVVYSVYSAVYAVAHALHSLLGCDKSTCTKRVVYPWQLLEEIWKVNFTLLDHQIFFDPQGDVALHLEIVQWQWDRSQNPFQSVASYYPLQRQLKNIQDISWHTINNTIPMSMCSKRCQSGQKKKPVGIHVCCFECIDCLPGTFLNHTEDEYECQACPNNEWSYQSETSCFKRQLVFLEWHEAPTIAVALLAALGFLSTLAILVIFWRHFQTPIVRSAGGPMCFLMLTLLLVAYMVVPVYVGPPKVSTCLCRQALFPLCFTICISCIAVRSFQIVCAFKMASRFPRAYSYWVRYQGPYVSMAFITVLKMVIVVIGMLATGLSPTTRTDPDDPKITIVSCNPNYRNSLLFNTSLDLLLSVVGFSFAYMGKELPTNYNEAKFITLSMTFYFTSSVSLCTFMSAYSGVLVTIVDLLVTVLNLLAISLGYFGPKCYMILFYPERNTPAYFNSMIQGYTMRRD
T1 sequence (Q7RTX0 21-852): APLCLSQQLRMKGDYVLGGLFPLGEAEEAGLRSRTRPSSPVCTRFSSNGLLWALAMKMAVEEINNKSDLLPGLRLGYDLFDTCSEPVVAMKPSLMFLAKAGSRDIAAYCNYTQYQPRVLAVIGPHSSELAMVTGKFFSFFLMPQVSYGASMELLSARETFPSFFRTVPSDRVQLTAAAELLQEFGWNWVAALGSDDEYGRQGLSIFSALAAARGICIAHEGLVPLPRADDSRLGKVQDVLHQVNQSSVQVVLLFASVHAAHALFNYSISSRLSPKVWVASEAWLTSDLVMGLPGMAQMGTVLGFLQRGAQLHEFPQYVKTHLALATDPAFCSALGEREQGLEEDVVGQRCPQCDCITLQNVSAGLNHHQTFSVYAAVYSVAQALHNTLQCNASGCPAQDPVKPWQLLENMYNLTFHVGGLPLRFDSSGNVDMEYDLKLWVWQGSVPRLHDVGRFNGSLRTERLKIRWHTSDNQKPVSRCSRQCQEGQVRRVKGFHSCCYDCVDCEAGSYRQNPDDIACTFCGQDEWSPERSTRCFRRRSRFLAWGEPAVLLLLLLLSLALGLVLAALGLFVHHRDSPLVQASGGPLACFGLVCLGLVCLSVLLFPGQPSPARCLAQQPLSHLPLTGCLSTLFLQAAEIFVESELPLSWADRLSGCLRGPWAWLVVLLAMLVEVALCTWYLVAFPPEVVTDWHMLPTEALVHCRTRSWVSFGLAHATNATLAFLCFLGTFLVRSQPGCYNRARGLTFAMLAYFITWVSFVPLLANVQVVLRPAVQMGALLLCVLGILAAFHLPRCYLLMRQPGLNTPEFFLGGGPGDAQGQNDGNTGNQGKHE
Experimental: Compounds described in this application show moderate to potent agonist effect on the sweet receptor based assay. Potencies (EC50 values, e.g. see Tables 1-3) for agonist activity were measured against the hT1R2/T1R3 taste receptor. FIG. 1 exemplifies the data generated during the screening to determine EC50 values.

[2] = Study 1: 10 ppm Compound 78 vs 1.5% Sucrose, pH 2.8
[3] = Study 2: 7 ppm Compound 78 + 6% sucrose vs 8% Sucrose

SMILES	Results (which of the samples was sweeter) (panelists; [2])	Results (which of the samples was sweeter) (panelists; [3])	EC50 [1] [µM]	Results (which of the samples was sweeter) (panelists; Study 3: 9 ppm Compound 78 + 6% HFCS vs 8% HFCS)	HFCS and sucrose sweet enhancement effect (panelists)	HFCS and sucrose sweet enhancement effect (panelists; listed as compound 78)	sweetness compared with 1.5% sucrose (panelists; test #1, 10 ppm, pH 2.8)	sweetness compared with 8% sucrose (panelists; test #2, 10 ppm of compound 78+6% sucrose)
OC[C@H]1O[C@@](CO)(O[C@H]2O[C@H](CO)[C@@H](O)[C@H](O)[C@H]2O)[C@@H](O)[C@@H]1O [Sucrose, sucrose, reference compound]	42	24						
COCc1cccc(C2CCN(C(COC)C(=O)NCC(C)C)CC2)c1F (stereo not shown) [Compound 78, 2-(4-(2-fluoro-3-(methoxymethyl)phenyl)piperidin-1-yl)-N-isobutyl-3-methoxypropanamide]	9	21	1.3	22	remarkable HFCS and Sucrose sweet enhancement effect	significant enhancement	significantly less sweet	no significant difference in sweetness
